We go through five molecules from US9683025B2, “Methods and compositions for treating cancer and inflammatory diseases” (The Regents of the University of Colorado, A Body Corporate, priority 2013, dated 2017).

“Also recorded” adds a separate entry of the source. Read-outs that look alike come from different tables or passages of the source. Where a SMILES comes first, the peptide text is derived from it. Where no end group is shown, it is not given here.

In assay [1] the test system is IMQ-based psoriasis model. The assay can be described thus: IMQ-based psoriasis model. The assay is classed as in vivo, mouse. As to conditions: FIG. 15B; for erythema, thickening and scaling (cumulative score): versus PBS.
Assay [2] deals with IMQ-based psoriasis model. Description: IMQ-based psoriasis model. Format: in vivo, mouse. As to conditions: for resistance to IMQ-induction of psoriasis: treated mice versus PBS control. How it is done:
To elucidate the molecular mechanisms for the Pep1-E1A blocker, H&E and immunostaining for proliferative and inflammatory markers was performed.

Assay [3] deals with H1299 non-small cell lung carcinoma cells. Description: Cell viability, H1299. Format: cell-based, human. Conditions: H1299, CtBP overexpressing, FIG. 5. The source says:
(§1) The Tat peptide alone has no effect on these cells.

For the next assay, the system named is 3T3 cells. The assay can be described thus: Cell viability, 3T3. Format: cell-based, mouse. Conditions: 3T3, does not significantly overexpress CtBP, FIG. 5.
Excerpt: as §1

The next assay deals with A375 melanoma cells. The assay can be described thus: Cell viability, A375. The assay is classed as cell-based. As to conditions: A375, CtBP overexpressing, FIG. 5.
Excerpt: as §1

Assay [4] deals with T1, CtBP-E1A interaction (Homo sapiens, UniProt Q13363). As to conditions: read-out: IC50 of inhibition of the CtBP/E1A interaction in vitro; Zhang et al. 2000; cited from earlier work.
The target of assay [5] is T2, CtBP (Homo sapiens, UniProt Q13363).
T2 construct: 6xHis
Description: Fluorescence polarization competition of unlabeled peptide with FITC-labeled 14mer peptide. The assay is classed as binding. As for the experimental part: (§2) Additional peptides were tested for in vitro inhibitory potency (Table 5). For Kd determination, FITC-labeled peptide (FITC-peptide) was incubated with varying concentrations of CtBP. The fluorescence polarization values of the FITC-peptide were measured and plotted against CtBP concentration to determine Kd of the FITC-peptide with CtBP using the Prism program. […] For IC50 determination, a fluorescence polarization assay was utilized. […] Increasing concentrations of unlabeled peptide were added to compete with the FITC-labeled peptide, leading to a decreased fluorescence polarization value.
Background: In fluorescence polarisation assays a small probe gives low polarisation when free and higher when bound to something large.

Assay [6] deals with T1, CtBP-E1A interaction. The assay can be described thus: CtBP-E1A interaction inhibition (AlphaScreen / fluorescence polarization competition assay). The assay is classed as binding. Conditions: IC50 value, Table 3; inhibition of CtBP/E1A protein interaction. How it is done:
The ability of peptides to inhibit CtBP binding can be monitored by two biochemical assays. An AlphaScreen assay (Perkin-Elmer) was developed that is capable of detecting the CtBP-E1A interaction. Purified GST-E1A and 6xHis-CtBP are incubated with glutathione-conjugated donor beads and nickel-chelated acceptor beads respectively. The interaction between CtBP and E1A brings the donor and acceptor beads in close proximity, which produces a fluorescence signal after laser excitation and can be detected using the EnVision plate reader. A peptide that inhibits this interaction will limit the proximity of the beads and thus a loss in fluorescence signal will occur. In addition to the alphascreen, a fluorescence polarization based assay with a fluorescein-labeled 14mer E1A peptide ([…] (SEQ ID NO: 1)) was also developed. Purified 6xHis-CtBP is incubated with the fluorescein-labeled E1A peptide and changes in the polarization value of the labeled peptide are detected using the EnVision plate reader. A decrease in peptide binding to CtBP can be detected by an […], and used to monitor peptide inhibition. IC50 values of designed peptides can be determined using either of these assays through the addition of increasing amounts in each well and monitoring the degree of inhibition of the CtBP-E1A interaction.
Multiple amino acid sequences may appear at positions outside the conserved peptide motif. The most frequently occurring amino acids in these positions are used to design the peptides that bind CtBP with the highest affinity. The affinity of these new peptides is compared to the original 14mer E1A peptide (SEQ ID NO:1) by comparing the IC50 of these peptides in inhibiting the CtBP/E1A protein interaction in a competition assay. The peptide identified from phage display that competes with the CtBP/E1A protein interaction better than the original 14mer E1A peptide is selected and conjugated to the cell penetrating peptide of the present invention. Also provided in Table 3 are […] for selected peptides.
The ability of peptides to inhibit CtBP binding can be monitored by two biochemical assays. An AlphaScreen assay (Perkin-Elmer) was developed that is capable of detecting the CtBP-E1A interaction. Purified GST-E1A and 6xHis-CtBP are incubated with glutathione-conjugated donor beads and nickel-chelated acceptor beads respectively. The interaction between CtBP and E1A brings the donor and acceptor beads in close proximity, which produces a fluorescence signal after laser excitation and can be detected using the EnVision plate reader. A peptide that inhibits this interaction will limit the proximity of the beads and thus a loss in fluorescence signal will occur. In addition to the alphascreen, a fluorescence polarization based assay with a fluorescein-labeled 14mer E1A peptide ([…] (SEQ ID NO: 1)) was also developed. Purified 6xHis-CtBP is incubated with the fluorescein-labeled E1A peptide and changes in the polarization value of the labeled peptide are detected using the EnVision plate reader. A decrease in peptide binding to CtBP can be detected by an […], and used to monitor peptide inhibition. IC50 values of designed peptides can be determined using either of these assays through the addition of increasing amounts in each well and monitoring the degree of inhibition of the CtBP-E1A interaction. Also provided in Table 4 are IC50 for selected peptides.
(Alpha assays give light when donor and acceptor beads are brought close together.)

Assay [7] has as its target T2, CtBP. The assay can be described thus: Fluorescence polarization Kd determination of FITC-peptide with CtBP. The assay is classed as binding. As for the experimental part:
as §2

Assay [8] concerns CtBP target genes BAX, BRCA1, and E-Cadherin. Description: Real-time PCR of endogenous CtBP target genes in H1299 cells. The assay is classed as cell-based, human. Conditions: increasing concentrations, FIG. 6. How it is done:
Total RNA was isolated using TRIzol (Invitrogen) as previously described (Zhang et al., 2006). One hundred nanograms of RNA from each sample were subjected to qRT-PCR (ThermoFisher). An 18S probe was used as an internal control. Each sample was examined in triplicate. Relative RNA expression levels were determined by normalizing with internal controls, the values were calculated using the comparative Ct method.
Subsequently, the transcription levels of the endogenous CtBP target genes BAX, BRCA1, and E-Cadherin in Tat-E1A treated H1299 cells were evaluated using real-time PCR.
On the technique in general: Real-time PCR tracks product formation cycle by cycle.

For the molecule “GRKKRRQRRRPPQGGEQTVPVDLSVARPRGL (also: conjugated to FITC) [Tat-E1A peptide]”, the psoriasis-like phenotype entry in [1] (Example 12, subcutaneously applied on the skin) is recorded as “significantly reduced”. The “resistance to IMQ-induction of psoriasis” value in assay [2] is on record as “showed resistance”.
For the molecule “GRKKRRQRRRPPQ [Tat, cell penetrating peptide alone, control, reference compound]”, the cell viability entry (in assay [3]; in the assay with 3T3 cells; with A375 melanoma cells) was “no effect” in each case.
As for `CC(C)C[C@H](NC(=O)[C@H](CC(=O)O)NC(=O)[C@H](CC(C)C)NC(=O)[C@@H]1CCCN1C(=O)[C@H](CCC(N)=O)NC(=O)CNC(=O)[C@@H]1CCCN1C(=O)[C@@H](N)CCC(=O)O)C(=O)N[C@@H](CO)C(=O)N[C@@H](CS)C(=O)N[C@@H](CCCCN)C(=O)N[C@@H](CCCNC(=N)N)C(=O)N1CCC[C@H]1C(=O)N[C@@H](CCCNC(=N)N)C(=O)O` [Wild-type, reference compound] (H-EPGQPLDLSCKRPR-OH; N-terminus and C-terminus assumed), the IC50 at CtBP-E1A interaction [4] is roughly 7 µM; at CtBP [5], 6 µM; at CtBP-E1A interaction [6] it was 7.26 µM. In addition, binding at CtBP [7] was characterised by a dissociation constant (Kd) of 4.3 µM.
Turning to GRKKRRQRRRPPQLEEPGQPLDLSCKRPR [Tat-E1A], the cell viability result in assay [3] is on record as “reduces the viability”; in the assay on 3T3 cells, “does not affect”; in the assay on A375 melanoma cells, “reduces the viability”. Besides, the “erythema, thickening and scaling (cumulative score)” value in assay [1] is “Reduction”. Further, the “CtBP-mediated suppression of target genes BAX, BRCA1, E-Cadherin (transcription levels)” value in assay [8] is “dose-dependent alleviation; also recorded: relieves the suppression”.
Consider “KETWWETWWTEWSQPKKKRKVLEEPGQPLDLSCKRPR [Pep1-E1A]”, for which the “erythema, thickening and scaling (cumulative score)” value in assay [1] was “Reduction”. For the same molecule, the psoriasis-like phenotype entry in assay [2] (applied on the skin (data not shown)) is listed as “largely reduced”. Besides, in assay [2] (compared to PBS-treated skin, FIG. 7A), the “IMQ-induced epithelial hyperplasia and inflammatory cell infiltration in the stroma (H&E)” value was “decreases”. For the same molecule, in assay [2] (immunostaining, FIG. 7B), the “BrdU incorporation (proliferation)” value is given as “largely reduced; also recorded: decreased” and the “CD45 staining (inflammation)” value is listed as “largely prevented; also recorded: decreased”. Also, the psoriasis-like phenotype entry in assay [2] (injected subcutaneously, FIG. 7) is “largely reduced”. Also, the “resistance to IMQ-induction of psoriasis” value in [2] is listed as “showed resistance”.
